In article PMC9750872, “Ras-mutant cancers are sensitive to small molecule inhibition of V-type ATPases in mice” (Nature biotechnology, 2022):
pKd: −log10 of the molar value.

Columns and labels:
MEFs bearing KRASG13D = assay: Macropinocytosis, TMR-dextran uptake; type: cell-based; conditions: Mus musculus; 2 μM 249C 18 h, DMSO = 100%; read-out: inhibition of MP
Experimental: (§1) Macropinosome visualization was essentially done as previously described. Cells were plated in black, clear bottom CellCarrier-96 Ultra Microplates (PerkinElmer 6055302) and serum-starved for 24 h. The next day, they were treated with 2 μM 249C (1255) for 18 h followed by addition of 70 kDa TMR-Dextran (Invitrogen D1818) and Hoescht for 2 hours at 37 °C prior to 3 × cold PBS washes and fixation in 4% paraformaldehyde for 30 min. Following 3 × cold PBS washes, mounting medium (Vector Laboratories Inc.) was added and images were captured using an Operetta CLS™ fluorescent microscope for High-Content Analysis (PerkinElmer). Image analysis and quantification was performed with a spot segmentation algorithm using the Perkin Elmer Harmony® PhenoLOGIC™ 3.2 software. Briefly, the images were segmented and individual nuclei (DAPI stained) and cell bodies (by digital phase contrast imaging) were identified. The TMR signal was used for the spot segmentation analysis block. […] Data are presented as spots - number of objects per nucleus. For each cell line, 5 DMSO control and 5 249C-treated wells were imaged and a minimum of 3 images were captured per well. Data representing three independent experiments are presented.

MEFs bearing KRASG12V = assay: Macropinocytosis, TMR-dextran uptake; type: cell-based; conditions: Mus musculus; 2 μM 249C 18 h, DMSO = 100%; read-out: inhibition of MP
Experimental: as §1

MEFs bearing BRAFV600E = assay: Macropinocytosis, TMR-dextran uptake; type: cell-based; conditions: Mus musculus; 2 μM 249C 18 h, DMSO = 100%; read-out: inhibition of MP
Experimental: as §1

DDR1 = DDR1 (Homo sapiens, UniProt Q08345); assay: KINOMEscan Kd determination; type: binding; conditions: 11-point serial dilution, top 30,000 nM
Description: (§2) The KINOMEscan™ Profiling Service consisting of 468 human kinases was used to assess 249C inhibitor activity to check for off-target effects as previously described.
(§3) Supplementary Fi g u re 12: Compound 249C assessed for off-target effects using the KIN OME scanTM screening platform. (A) Selectivity (S-score) for 249C wher e the sco re is a qu antitative measu re o f compound selectivity against human kinases. It is calculate b y dividing the number of k inases that compounds bi nd to b y the total number of distinct kinases tested, excluding mutant variants (S = number of hits / number of assa ys). 1 hit out of >400 kinases is reported for test compound (249C) = 0.002. S(35) = number of non- mutant kinases with % ctrl <35/number of non- mutant kinases; (B) Kinome interaction map for 249C at 10,000 nM. Each red dot indicates a kinase found to bind, where larger dots indicate higher affinit y interactions.
(§4) 1 Tyrosine Kinase (TK) out of >400 kinases ( created in TREEspotTM ) with low affinity. This is calculated using
(§5) Dissociation constants (Kds) were determined using 249C at 30,000 nM, Hill slopes were set to - 1 and curves were fitted using a non- linear least square fit with the […]
(§6) (1 picture or pasted object on this page, not shown here)

DDR2 = DDR2 (Homo sapiens, UniProt Q16832); assay: KINOMEscan Kd determination; type: binding; conditions: 11-point serial dilution, top 30,000 nM
Description: as §2, §3, §4, §5, §6

[1] = molecular target: T1, human H subunit (ATP6V1H) (Homo sapiens, UniProt Q9UI12); assay: Bio-layer interferometry (BLI); type: binding; conditions: biotinylated-249C on streptavidin sensors
T1 construct: GST (cleaved yes); host or cells: Rosetta2(DE3)pLysS (E. coli)
Description: (§7) Figure 4. […] (A) Model of the reversible assembly of V-ATPase. Cytosolic V1 subunits are depicted in blue and membrane Vo subunits in purple. Upon V-ATPase assembly, ATP is hydrolyzed to ADP accompanied by proton (H^+) pumping and luminal acidification (decrease in pH) (Created with BioRender). […] The amount of subunit B2 present in the membrane fraction indicates the amount of assembled V-ATPase. A representative Western blot is presented. […] Cells were mechanically lysed, and a fraction containing FITC-Dextran-loaded lysosomes was isolated by sedimentation centrifugation. Fluorescence was measured over time to assess pH-dependent quenching following addition of 1 mM magnesium-ATP (predetermined). […] Representative of 5 individual experiments with n = 3 for each is presented (mean ± SD) (D) Mammalian V-ATPase activity measured in the absence and presence of 1 μM 249C and 1 μM BafA1. Data shown are mean ± SD; n = 3. Bio-layer inferometry (BLI) of (E) the entire mammalian V-ATPase complex (association protein concentrations: 30, 60, 120, 240 nM) and (F) the individual human H subunit (ATP6V1H) (association protein concentrations: 16,800 and 21,000 nM) against biotinylated-249C loaded onto streptavidin sensor tips. A reference sensor was subtracted from the signal to blank the system. The ForteBio Octet® Software on the BLI system was used to calculate Kd s. […]

[2] = molecular target: T2, entire mammalian V-ATPase complex (Sus scrofa, UniProt Q9TVC1); assay: Bio-layer interferometry (BLI); type: binding, porcine; conditions: biotinylated-249C on streptavidin sensors
T2 construct: the entire V-ATPase complex (800 kDa) was purified as described previously from porcine kidneys; from tissue; host or cells: porcine kidney
Description: as §7

[3] = molecular target: T3, mammalian V-ATPase purified from pig kidneys (Sus scrofa, UniProt Q9TVC1); assay: Biochemical V-ATPase (ATP hydrolysis) assay; conditions: concentrations as low as 1 μM
T3 construct: the entire V-ATPase complex (800 kDa) was purified as described previously from porcine kidneys; from tissue; host or cells: porcine kidney
Experimental: V-ATPase was purified as described previously from yeast[82] using the detergent dodecylmaltoside and porcine kidney[83] using the detergent glycol-diosgenin. ATPase assays with purified V-ATPase were performed as described previously. 249C (mammalian: 0.1, 1, 10, 100 μM and yeast: 5, 10 and 100 μM) or BafA1 (1 μM) were added to the reaction and compared with a negative control to which only DMSO was added. Enzyme-coupled ATPase biochemical activity assays were performed in a 96-well plate as described previously.

T3 sequence (Q9TVC1 whole entry): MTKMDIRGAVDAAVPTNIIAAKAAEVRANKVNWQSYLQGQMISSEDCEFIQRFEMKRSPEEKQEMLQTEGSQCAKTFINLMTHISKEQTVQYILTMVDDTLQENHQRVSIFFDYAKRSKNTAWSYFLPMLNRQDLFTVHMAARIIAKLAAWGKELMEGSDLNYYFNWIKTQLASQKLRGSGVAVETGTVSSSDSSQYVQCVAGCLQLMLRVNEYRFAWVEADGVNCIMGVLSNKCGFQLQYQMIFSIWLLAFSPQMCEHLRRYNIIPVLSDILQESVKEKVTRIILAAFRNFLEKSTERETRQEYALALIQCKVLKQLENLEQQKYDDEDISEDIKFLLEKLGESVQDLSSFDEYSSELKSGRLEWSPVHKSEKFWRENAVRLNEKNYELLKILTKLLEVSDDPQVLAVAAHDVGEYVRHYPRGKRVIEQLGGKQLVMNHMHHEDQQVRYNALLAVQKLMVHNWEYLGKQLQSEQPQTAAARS
T3 sequence (Q29048 whole entry partner): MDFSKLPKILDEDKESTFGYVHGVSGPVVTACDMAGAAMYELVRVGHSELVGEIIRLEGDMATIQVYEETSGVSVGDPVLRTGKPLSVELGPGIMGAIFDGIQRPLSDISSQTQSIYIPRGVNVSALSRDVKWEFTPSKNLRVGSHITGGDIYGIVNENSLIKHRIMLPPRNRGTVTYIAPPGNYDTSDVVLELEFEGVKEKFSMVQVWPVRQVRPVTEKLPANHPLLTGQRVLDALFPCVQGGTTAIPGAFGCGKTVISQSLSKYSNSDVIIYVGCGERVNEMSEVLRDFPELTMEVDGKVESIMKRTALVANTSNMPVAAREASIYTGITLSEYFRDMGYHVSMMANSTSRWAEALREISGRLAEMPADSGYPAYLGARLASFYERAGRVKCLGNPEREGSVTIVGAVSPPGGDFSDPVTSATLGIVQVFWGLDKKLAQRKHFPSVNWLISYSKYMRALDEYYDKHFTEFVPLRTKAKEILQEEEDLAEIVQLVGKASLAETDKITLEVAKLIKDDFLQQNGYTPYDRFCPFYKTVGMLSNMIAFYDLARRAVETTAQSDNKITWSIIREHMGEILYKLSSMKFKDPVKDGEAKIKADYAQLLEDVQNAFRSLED
T2 sequence (Q9TVC1 whole entry): as the sequence (Q9TVC1 whole entry) above
T2 sequence (Q29048 whole entry partner): as the sequence (Q29048 whole entry partner) above
T1 sequence (Q9UI12 whole entry): as the sequence (Q9TVC1 whole entry) above, with S44A, S85C, T100M, K116R, R117C, S124P, L135P, A173S, L309M counted along it
DDR2, sequence (Q16832 22-855): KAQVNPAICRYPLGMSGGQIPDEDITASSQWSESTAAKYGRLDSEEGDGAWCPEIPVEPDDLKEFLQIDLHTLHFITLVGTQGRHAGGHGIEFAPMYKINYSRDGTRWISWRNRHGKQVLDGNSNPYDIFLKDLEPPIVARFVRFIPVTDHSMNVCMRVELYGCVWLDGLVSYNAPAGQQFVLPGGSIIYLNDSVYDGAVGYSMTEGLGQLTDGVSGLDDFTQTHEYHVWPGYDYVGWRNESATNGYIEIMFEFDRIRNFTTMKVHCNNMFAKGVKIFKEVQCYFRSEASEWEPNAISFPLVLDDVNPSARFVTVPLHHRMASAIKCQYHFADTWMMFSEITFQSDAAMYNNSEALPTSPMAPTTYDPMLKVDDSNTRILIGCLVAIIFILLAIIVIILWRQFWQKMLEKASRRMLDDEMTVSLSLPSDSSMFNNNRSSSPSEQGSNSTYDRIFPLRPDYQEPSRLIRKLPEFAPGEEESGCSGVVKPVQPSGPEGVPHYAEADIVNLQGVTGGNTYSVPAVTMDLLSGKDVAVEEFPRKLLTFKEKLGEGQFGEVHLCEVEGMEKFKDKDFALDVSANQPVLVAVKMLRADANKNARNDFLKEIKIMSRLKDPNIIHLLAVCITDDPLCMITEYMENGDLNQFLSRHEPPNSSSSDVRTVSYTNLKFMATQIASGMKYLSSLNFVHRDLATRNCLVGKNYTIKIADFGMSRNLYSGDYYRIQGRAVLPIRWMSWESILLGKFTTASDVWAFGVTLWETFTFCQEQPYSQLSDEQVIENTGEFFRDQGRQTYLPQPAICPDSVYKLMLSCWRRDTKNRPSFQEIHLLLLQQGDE
DDR1, sequence (Q08345 19-913): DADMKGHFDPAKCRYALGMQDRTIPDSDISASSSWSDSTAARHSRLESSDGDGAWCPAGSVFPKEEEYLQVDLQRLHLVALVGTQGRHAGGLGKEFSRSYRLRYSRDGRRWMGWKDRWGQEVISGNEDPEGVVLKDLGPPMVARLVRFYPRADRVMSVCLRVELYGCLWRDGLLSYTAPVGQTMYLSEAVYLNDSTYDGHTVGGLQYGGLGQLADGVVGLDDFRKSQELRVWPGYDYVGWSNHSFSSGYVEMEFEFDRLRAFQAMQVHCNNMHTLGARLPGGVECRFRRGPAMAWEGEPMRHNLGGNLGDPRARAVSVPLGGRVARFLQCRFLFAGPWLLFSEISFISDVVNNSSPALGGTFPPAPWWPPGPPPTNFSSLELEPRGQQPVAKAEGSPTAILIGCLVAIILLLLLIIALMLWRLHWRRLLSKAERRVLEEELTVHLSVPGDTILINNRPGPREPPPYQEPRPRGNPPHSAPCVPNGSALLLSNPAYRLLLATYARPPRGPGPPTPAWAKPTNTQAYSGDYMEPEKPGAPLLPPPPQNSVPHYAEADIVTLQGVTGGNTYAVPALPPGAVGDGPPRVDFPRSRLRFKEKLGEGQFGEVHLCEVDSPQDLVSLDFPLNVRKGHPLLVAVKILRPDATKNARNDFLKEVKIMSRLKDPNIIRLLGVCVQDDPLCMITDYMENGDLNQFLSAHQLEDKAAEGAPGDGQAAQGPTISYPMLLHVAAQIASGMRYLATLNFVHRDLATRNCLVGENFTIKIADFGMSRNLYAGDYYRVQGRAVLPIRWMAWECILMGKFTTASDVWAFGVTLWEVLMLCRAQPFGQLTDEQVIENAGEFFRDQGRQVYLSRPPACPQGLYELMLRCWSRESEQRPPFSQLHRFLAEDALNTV

CN1CCOC(CNC(=O)C2(C)C(c3ccc(Cl)o3)C(c3ccc(F)cc3F)=NN2c2ccc(F)cc2F)C1 (centres unmarked) [Compound 249C]
inhibition at 2 µM (MEFs bearing KRASG13D): 94% | inhibition at 2 µM (MEFs bearing KRASG12V): 73% | inhibition at 2 µM (MEFs bearing BRAFV600E): 90% | pKd (DDR1): 5.27 | pKd (DDR2): 4.80 | pKd [1]: 6.30 | pKd [2]: 7.64 | ATP hydrolysis of intact mammalian V-ATPase [3]: blocked ATP hydrolysis
